From patent US12582720B2, “Compound for preventing or treating lipid metabolism-related diseases” (Fudan University, priority 2020, dated 2026)
“Also recorded” adds a separate entry of the source.

How the values were obtained:
[1] = test system: lipid droplets in wild type MEF cells; assay: Reduction of OA-induced lipid droplets in wild type MEF cells (BODIPY 493/503 staining); assay type: cell-based, mouse; conditions: wild type MEF, 24 h; for lipid droplets: 1.5 μM or 5 μM; for amount of lipid droplets / size of lipid droplets: OA-induced
Experimental: (5) OA-BSA stock solution was prepared into OA-BSA working solution (50× final concentration, 200 μM), and 40 μl of OA-BSA working solution was added to each well to induce lipid droplets. For the non-OA induction group, 40 μl of 10% BSA solution was added to the control well, and the amount of BSA was the same as that of the experimental group.
Compounds were formulated into DMSO stock solutions. Stock compounds were diluted with DMSO into the indicated concentrations of working solutions prior to use in the treatment of cells. After induction of the lipid droplets with OA for the indicated time, the test compounds were added to the cells respectively. Control wells were replaced with the equal volume of DMSO. Unless otherwise stated, the compounds were diluted into 10× solutions using the culture medium and added to the culture medium for 24 hours of incubation. Cells were treated with compounds in a 37° C. incubator with 5% CO2.
(3) The original medium in the multi-well plates was removed, washed and the cells was fixed, 1 ml of the BODIPY solution prepared in (1) was added to each well, and stained for 15 minutes. The staining solution was aspirated and washed with 1×PBS.
(5) The coverslips laid in the multi-well plates were removed, and imaged with the Zeiss 880 confocal microscope after mounted, and analyzed the size and number of lipid droplets with ImageJ.
Wild type MEF cells were cultured in a DMEM culture medium containing 10% FBS. Cells were plated according to the method as described above (12 well plate was plated with aseptic treated slides). When cells grew to a confluence of 60-70%, lipid droplets were induced with OA for 30 h according to the method as described above.
At the time point of 6th hour after initiation of induction, the cells were treated (treated for 24 hours) with Compound 1A or Compound 2A (compound concentrations were 50 μM, 15.8 μM, 5 μM, 1.58 μM, 0.5 μM, 0.158 μM) according to the method as described above.

[2] = test system: lipid droplets in autophagy-deficient MEF cells (Atg5−/−); assay: Lipid droplets in autophagy-deficient MEF cells (Atg5-/-); assay type: cell-based, mouse; conditions: 5 μM, 24 h
Experimental: Wild type MEF cells and autophagy-deficient MEF cells (Atg5−/−) were cultured in a DMEM culture medium containing 10% FBS. Cells were plated according to the method as described above (12 well plate was plated with aseptic treated slides). When cells grew to a confluence of 60-70%, lipid droplets were induced with OA for 30 h according to the method as described above. At the time point of 6th hour after initiation of induction, OA induced lipid droplets for 30 h, and the cells were treated (treated for 24 hours) with Compound 1A or Compound 2A according to the method as described above. […] The control wells were replaced with DMSO (treated with DMSO). […] After 26 hours of OA induction for lipid droplets, the culture medium of DMSO treated cells was replaced with EBSS, and starved for 4 hours to induce autophagy, and a slight reduction on lipid droplets was observed relative to cells without starvation treatment. Therefore, lipid droplets can be degraded via cell autophagy. The compound of present disclosure could promote the degradation of lipid droplets via cell autophagy.

[3] = test system: lipid droplets in SH-SY5Y cells; assay: Reduction of OA-induced lipid droplets in SH-SY5Y cells; assay type: cell-based, human; conditions: for amount of lipid droplet: 1.58 μM-50 μM; for amount of lipid droplet / size of lipid droplet: 24 h; for size of lipid droplet: 5 μM-50 μM; for lipid droplet levels: concentrations as indicated in FIG. 18, 24 h
Source text: The reduction of lipid droplets in SH-SY5Y cells by Compound 1A and Compound 2A was detected by a method that was similar to Example 2, and the result was shown in FIG. 18.
The effects of unconjugated LC3 binding Compound A1, A5 and unconjugated lipid droplet probe ORBB […] respectively on lipid droplets in SH-SY5Y cells (FIG. 20A) and MEF cells (FIG. 20B) were detected by a method similar to Example 2.

[4] = test system: lipid droplets in SH-SY5Y cells; assay: Lipid droplets in SH-SY5Y cells in the presence of autophagy inhibitor NH4Cl; assay type: cell-based, human; conditions: with NH4Cl 5 mM, 24 h
Experimental: By a method similar to Example 4, but after 6 hours from OA induction of lipid droplets, while the test compound was added into cells, autophagy inhibitor ammonium chloride (NH4Cl, final concentration of 5 mM) was added simultaneously. After continuous treatment for 24 hours, the lipid droplets were stained. […] Therefore, the compound of present disclosure reduced lipid droplets by targeting autophagy of cells.

[5] = test system: lipid droplets in 3T3-L1 fat precursor cell differentiated fat cells; assay: Lipid droplets in 3T3-L1 fat precursor cell differentiated fat cells; assay type: cell-based, mouse; conditions: 3T3-L1 differentiated fat cells, 24 h; for effect of the compound on lipid droplets under the treatment of NH4Cl: 5 μM + NH4Cl 5 mM; for amount of lipid droplets / size of lipid droplets: 5 μM
[6] = test system: autophagosome-lipid droplet colocalization in MEF cells; assay: Colocalization of autophagosome and lipid droplets in mCherry-LC3B transfected MEF cells; assay type: cell-based, mouse; conditions: 5 μM, 3 h, compared to DMSO control
Experimental: (1) In MEF cells, mCherry-LC3B was expressed by cDNA plasmid transfection.
(2) OA was added to the culture medium 30 hours after transfection to induce lipid droplets.
(3) Compounds were added to treat cells 6 hours after induction.
(4) 3 hours after compounds addition, cells were fixed and BODIPY stained.
(5) The coverslips laid in the multi-well plates were removed, and imaged with the Zeiss 880 confocal microscope after mounted to observe the aggregation of LC3 puncta around the lipid droplets.
In MEF cells, mCherry-LC3B was expressed by cDNA plasmid transfection. At 30th hour of overexpression, OA was added into cells for lipid droplet induction. 6 hours later, the compound was added for 3 hours' treatment, and then cells were subjected to immunostaining. […] Lipid droplets (green) were stained with BODIPY stain, and nucleus were indicated with DAPI stain. […] In FIG. 24, the colocalized autophagosome-lipid droplet was marked with circles.

[7] = test system: lipid droplets in LC3B knockout HEK293T cells; assay: Lipid droplets in LC3B knockout HEK293T cells; assay type: cell-based, human; conditions: 5 μM
Experimental: The effect of conjugated compounds (Compound 1A, Compound 2A, Compound 3A or Compound 4A at a concentration of 5 μM) on lipid droplets in LC3B knockout HEK293T cells was tested by a method similar to Example 2.

[8] = test system: lipid droplets in human normal liver cell line QSG7701; assay: Endogenous lipid droplets in human normal liver cell line QSG7701; assay type: cell-based; conditions: QSG7701, no induction, 5 μM, 24 h
Experimental: 10% FBS+90% RPMI 1640 culture medium was used for cultivation, cell incubator culture condition of 37° C. and 5% CO2 was used. Cells were plated as 50 thousands/well (12 well plate was plated with aseptic treated slides). When cells grew to a confluence of 80-90%, the compound (Compound 1A or Compound 2A, at a concentration of 5 μM) was added for treatment, and LC3 binding Compound A1, A5, lipid droplet probe Sudan IV as well as DMSO acted as a control. […]. In the compounds of present disclosure, LC3 binding moiety was covalently linked with lipid droplet binding moiety, and thus could achieve the effect of reducing liver cell endogenous lipid droplet.

LC3B = LC3B (Homo sapiens, UniProt Q9GZQ8); assay: MST detection of affinity activity with LC3B; assay type: binding; set-up: His8 (with TEV site) (N); made in house; host or cells: Escherichia coli BL21(DE3)pLysS; conditions: MST; read-out: Kd (μM), equilibrium dissociation constant between the conjugated compound and LC3B
Experimental: The recombinant GST-LC3B proteins were prepared and purified, dialyzed into 1×PBS, and then labelled with the red fluorophore with the protein labeling kit RED-NHS (Nanotemper, cat. no. L001).
The MST experiments were performed using the Monolith NT.115 instrument (NanoTemper Technologies). The reaction buffer contains 20 mM HEPES, pH 7.4, 150 mM NaCl, and the protein concentration was 500 nM. The MST data were collected under 40% infrared laser power and 20% light-emitting diode power. The data were analyzed by Nanotemper software.

wild type MEF cells = assay: Integrity of nuclear membrane, cell membrane and mitochondria in MEF cells; assay type: cell-based, mouse; conditions: 5 μM, 24 h
Experimental: Cells were blocked in 4% BSA+0.1% Triton X-100 in 1×PBS for 30 min and incubated overnight at 4° C. with primary antibody goat polyclonal Lamin B1 (1:200, Santa Cruz Biotechnology, cat. no. sc-6216, RRID: AB_648156), washed with blocking buffer, and incubated with secondary antibody (1:500, Alexa Flour488 donkey anti-goat, Jackson immunoResearch Lab, cat.no. 705-547-003, RRID: AB_2340431) at room temperature for 1 hour. The samples were washed three times and stained with DAPI for 10 min at room temperature.
MitoTracker staining and CellMask staining were performed the same as LysoTracker staining, except using MitoTracker™ Green FM (500 nM, Thermo Fisher, cat. no. M7514) staining for 3 hours to detect total mitochondria; MitoTracker™ Red CMXRos. (500 nM, Thermo Fisher, cat. no. M7512) staining for 3 hours to detect healthy mitochondria; and CellMask™ (2000×, CellMask™ Plasma Membrane Stains, Thermo Fisher, cat. no. C10046) staining for 5 minutes at 37° C.
Wild type MEF cells were treated with conjugated compound (Compound 1A, Compound 2A, Compound 3A or Compound 4A at a concentration of 5 μM) according to a method similar to Example 2. […]

[9] = test system: lipid droplets in wild type MEF cells; assay: Reduction of OA-induced lipid droplets in wild type MEF cells (BODIPY 493/503 staining); assay type: cell-based, mouse

| Compound | lipid droplets [1] | amount of lipid droplets ([1]; 0.5 μM-50 μM) | size of lipid droplets ([1]; 5 μM-50 μM) | lipid droplets [2] | amount of lipid droplet [3] | size of lipid droplet [3] | lipid droplet levels [3] | lipid droplets [4] | effect of the compound on lipid droplets under the treatment of NH4Cl [5] | amount of lipid droplets [5] | size of lipid droplets [5] | ratio of colocalization of red and green aggregation point (autophagosome-lipid droplet) [6] | reduction of lipid droplets induced by conjugated compounds after knockout of LC3B gene [7] | endogenous lipid droplets (amount) [8] | Kd (LC3B) | amount of lipid droplets ([1]; 1.58 μM-50 μM) | size of lipid droplets ([1]; 1.58 μM-50 μM) | integrity of nuclear membrane, cell membrane, mitochondrion membrane (wild type MEF cells) | lipid droplets ([9]; DMSO treated cells, 5 mM NH4Cl, 24 h, relative to cells not treated with NH4Cl) | amount or size of lipid droplets ([9]; wild type MEF, autophagy blocker NH4Cl) |
| --- | --- | --- | --- | --- | --- | --- | --- | --- | --- | --- | --- | --- | --- | --- | --- | --- | --- | --- | --- | --- |
| 3-(3,5-dibromo-4-hydroxylbenzylidene)-5-iodo-1-(10-((1-((E)-(4-((E)-phenyldiazenyl)phenyl)diazenyl)naphthalen-2-yl)oxy)decyl)indol-2-one [Compound 1A] | significantly reduced | significantly reduced | significantly reduced | does not change; also recorded: ineffective | significantly reduce | significantly reduce | significantly reduces | does not change; also recorded: did not reduce | blocked | could reduce | could change | significantly increased | largely blocked | significantly reduce; also recorded: could reduce | 3.56 µM | – | – | – | – | – |
| Cc1ccccc1/N=N/c1ccc(/N=N/c2c(OCCCCCCCCCCOc3cc(O)cc4oc(=O)cc(-c5ccccc5)c34)ccc3ccccc23)c(C)c1 [Compound 2A, 7-hydroxy-5-((10-((1-((E)-(2-methyl-4-((E)-o-methylphenyldiazenyl)phenyl)diazenyl)naphthalen-2-yl)oxy)decyl)oxy)-4-phenyl-2H-chromen-2-one] | significantly reduced | – | – | does not change; also recorded: ineffective | significantly reduce | significantly reduce | significantly reduces | does not change; also recorded: did not reduce | blocked | could reduce | could change | significantly increased | largely blocked | significantly reduce; also recorded: could reduce | 5.37 µM | significantly reduced | significantly reduced | – | – | – |
| Cc1ccccc1/N=N/c1ccc(/N=N/c2c(OCCCCCCCCCCOc3cc(O)c4c(-c5ccccc5)cc(=O)oc4c3)ccc3ccccc23)c(C)c1 [Compound 2] | – | – | – | – | – | – | – | – | – | – | – | – | – | – | – | – | – | Did not Affect | – | – |
| Cl.N [NH4Cl, ammonium chloride] | – | – | – | – | – | – | – | – | – | – | – | – | – | – | – | – | – | – | slight increase | slightly increased |
